Series [1] has as its system Fusarium culmorum. The experiment in a line: whole plant or invertebrate. The conditions noted are these: in Triticum aestivum, read-out: control of Fusarium culmorum. It counts as in vivo, Fusarium culmorum on wheat spikelets cv. Monsun.
Series [2] concerns Magnaporthe grisea (Pyricularia oryzae). Kind of series: microbe, parasite or virus in culture. It counts as cell-based. The conditions noted are these: read-out: control of Magnaporthe grisea.
Series [3] shares this test system. The experiment in a line: whole plant or invertebrate. The conditions noted are these: foliar, read-out: control of Magnaporthe grisea. The class given is in vivo, Magnaporthe grisea on rice leaf segments cv. Ballila.
Series [4] has as its system Mycosphaerella graminicola (Septoria tritici). Kind of series: Mycosphaerella graminicola (Septoria tritici) / liquid culture (Septoria blotch). The note with it: Zymoseptoria tritici, growth inhibition photometrically 4-5 days after application, vs untreated control. It counts as cell-based. On the procedure: Mycosphaerella graminicola (Septoria tritici)/Liquid Culture (Septoria Blotch)
(§1) Conidia of the fungus from cryogenic storage are directly mixed into nutrient broth (PDB potato dextrose broth). After placing a (DMSO) solution of test compound into a microtiter plate (96-well format), the nutrient broth containing the fungal spores is added. The test plates are incubated at 24° C. and the inhibition of growth is determined photometrically 4-5 days after application.

In series [5] the test system is Botryotinia fuckeliana (Botrytis cinerea). The experiment in a line: Botryotinia fuckeliana (Botrytis cinerea) / liquid culture (gray mould). The conditions noted are these: growth inhibition photometrically 3-4 days after application, vs untreated control. It counts as cell-based. On the procedure: Botryotinia fuckeliana (Botrytis cinerea)/Liquid Culture (Gray Mould)
Conidia of the fungus from cryogenic storage are directly mixed into nutrient broth (Vogels broth). After placing a (DMSO) solution of test compound into a microtiter plate (96-well format), the nutrient broth containing the fungal spores is added. The test plates are incubated at 24° C. and the inhibition of growth is determined photometrically 3-4 days after application.

In series [6] the test system is Fusarium culmorum. Kind of series: microbe, parasite or virus in culture. The conditions noted are these: read-out: control of Fusarium culmorum. The class given is cell-based.
Series [7] deals with Glomerella lagenarium (Colletotrichum lagenarium). Kind of series: Glomerella lagenarium (Colletotrichum lagenarium) / liquid culture (anthracnose). It counts as cell-based. The conditions noted are these: Colletotrichum orbiculare, growth inhibition photometrically 3-4 days after application, vs untreated control. On the procedure: Conidia of the fungus from cryogenic storage are directly mixed into nutrient broth (PDB potato dextrose broth). After placing a (DMSO) solution of test compound into a microtiter plate (96-well format), the nutrient broth containing the fungal spores is added. The test plates are incubated at 24° C. and the inhibition of growth is measured photometrically 3-4 days after application.

Series [8] concerns Monographella nivalis (Microdochium nivale). The experiment in a line: Monographella nivalis (Microdochium nivale) / liquid culture (foot rot cereals). The class given is cell-based. The note with it: growth inhibition photometrically 4-5 days after application, vs untreated control. On the procedure:
Monographella nivalis (Microdochium nivale)/Liquid Culture (Foot Rot Cereals)
as §1

The test system of the next series is Sclerotinia sclerotiorum. The experiment in a line: Sclerotinia sclerotiorum / liquid culture (cottony rot). The class given is cell-based. The note with it: growth inhibition photometrically 3-4 days after application, vs untreated control. On the procedure: Sclerotinia sclerotiorum/Liquid Culture (Cottony Rot)
Mycelia fragments of a newly grown liquid culture of the fungus are directly mixed into nutrient broth (Vogels broth). After placing a (DMSO) solution of test compound into a microtiter plate (96-well format) the nutrient broth containing the fungal material is added. The test plates are incubated at 24° C. and the inhibition of growth is determined photometrically 3-4 days after application.

We go through 10 compounds from patent US20220030867A1 (priority 2018, published 2022).

As for `CC(C)CC(F)(Cc1ccccc1)C(=O)Nc1cnc2c(F)cccc2c1` (stereo not drawn) [Compound E-1], the pest or weed control at 200 ppm (in the series on Fusarium culmorum [1]; in series [3]) was no less than 80% each time. Also, the inhibition of growth at 200 ppm in series [2] and in series [4] was no less than 80% throughout.

With `C=C(Cl)CC(Cc1ccccc1)C(=O)Nc1cc2cccc(F)c2nc1C` (stereo not drawn) [Compound E-4, 2-benzyl-4-chloro-N-(8-fluoro-2-methyl-3-quinolyl)pent-4-enamide], the melting point lay in the range of 96 to 99 °C. Also, the inhibition of growth at 200 ppm in series [2] is no less than 80%. The compound further had an inhibition of growth at 200 ppm in [4] of no less than 80%.

`Cc1c(NC(=O)C(Cc2ccccc2)CC2(C)CC2)cnc2c(F)cccc12` (stereo not drawn) [Compound E-90, 2-benzyl-N-(8-fluoro-4-methyl-3-quinolyl)-3-(1-methylcyclopropyl)propanamide] gave a melting point of 144 to 146 °C. This compound also came in with an inhibition of growth at 200 ppm in [5] of no less than 80%. In the series on Fusarium culmorum [6], the inhibition of growth at 200 ppm was no less than 80%. Further, in the series with Fusarium culmorum [1], the pest or weed control at 200 ppm was no less than 80%. Moreover, in [7], the inhibition of growth at 200 ppm is no less than 80%. Besides, the inhibition of growth at 200 ppm in [8] was no less than 80%. The inhibition of growth at 200 ppm in series [2] was no less than 80%. Also, the pest or weed control at 200 ppm in series [3] was no less than 80%. The same compound registered an inhibition of growth at 20 ppm in the series on Sclerotinia sclerotiorum of no less than 80%.

For `CC1(CC(Cc2ccccc2)C(=O)Nc2cnc3c(F)cccc3c2)CC1` (stereo not drawn) [Compound E-91, 2-benzyl-N-(8-fluoro-3-quinolyl)-3-(1-methylcyclopropyl)propanamide], the melting point was in the range of 135 to 136 °C. In series [5], this compound gave an inhibition of growth at 200 ppm of no less than 80%. Also, the inhibition of growth at 200 ppm in the series on Fusarium culmorum [6] was no less than 80%. Further, the pest or weed control at 200 ppm in the series on Fusarium culmorum [1] was no less than 80%. In addition, in series [7], the inhibition of growth at 200 ppm is no less than 80%. For the same compound, the inhibition of growth at 200 ppm in series [8] was no less than 80%. Also, the inhibition of growth at 200 ppm in series [2] is no less than 80%. In addition, the pest or weed control at 200 ppm in [3] is no less than 80%. Also, in the series with Sclerotinia sclerotiorum, the inhibition of growth at 20 ppm was no less than 80%.

`C=C(C)CC(Cc1ccccc1)C(=O)Nc1cc2cccc(F)c2nc1C` (stereo not drawn) [Compound E-92, 2-benzyl-N-(8-fluoro-2-methyl-3-quinolyl)-4-methyl-pent-4-enamide] registered a melting point of 97 to 99 °C. Further, the pest or weed control at 200 ppm with Fusarium culmorum [1] was no less than 80%. For the same compound, the inhibition of growth at 200 ppm in series [2] is no less than 80%. The inhibition of growth at 200 ppm in series [4] is no less than 80%.

`C=C(C)CC(Cc1ccccc1)C(=O)Nc1cnc2c(F)cccc2c1C` (stereo not drawn) [Compound E-93, 2-benzyl-N-(8-fluoro-4-methyl-3-quinolyl)-4-methyl-pent-4-enamide] yielded a melting point of 116 to 118 °C. Besides, the inhibition of growth at 200 ppm in [2] was no less than 80%. Moreover, the pest or weed control at 200 ppm in [3] is no less than 80%. For the same compound, the inhibition of growth at 200 ppm in [4] is no less than 80%. In the series with Sclerotinia sclerotiorum, this compound yielded an inhibition of growth at 20 ppm of no less than 80%.

In turn, `Cc1c(NC(=O)C(Cc2ccccc2)CC(C)(C)C)cnc2c(F)cccc12` (stereo not drawn) [Compound E-96, 2-benzyl-N-(8-fluoro-4-methyl-3-quinolyl)-4,4-dimethyl-pentanamide] returned a melting point of 135 to 136 °C. The compound further yielded an inhibition of growth at 200 ppm in series [5] of no less than 80%. The inhibition of growth at 200 ppm in the series on Fusarium culmorum [6] is no less than 80%. In the series with Fusarium culmorum [1], the pest or weed control at 200 ppm was no less than 80%. Further, the inhibition of growth at 200 ppm in series [7] was no less than 80%. Besides, the inhibition of growth at 200 ppm in [8] is no less than 80%. For the same compound, the inhibition of growth at 200 ppm in series [2] was no less than 80%. The pest or weed control at 200 ppm in series [3] was no less than 80%. The same compound gave an inhibition of growth at 20 ppm in the series with Sclerotinia sclerotiorum of no less than 80%.

Turning to `C=C(Cl)C[C@@H](Cc1ccccc1)C(=O)Nc1cc2cccc(F)c2nc1C` [Compound F-25, (2R)-2-benzyl-4-chloro-N-(8-fluoro-2-methyl-3-quinolyl)pent-4-enamide], the inhibition of growth at 200 ppm (in series [5]; in the series on Fusarium culmorum [6]; in series [7]; in [2]; in series [4]) was no less than 80% throughout. In addition, the pest or weed control at 200 ppm (with Fusarium culmorum [1]; in series [3]) was no less than 80% in each case.

Turning to `C=C(Cl)C[C@@H](Cc1ccccc1)C(=O)Nc1cnc2c(F)cccc2c1C` [Compound F-27, (2R)-2-benzyl-4-chloro-N-(8-fluoro-4-methyl-3-quinolyl)pent-4-enamide], the inhibition of growth at 200 ppm in [5], in [7], in series [8], in [2] and in series [4] was no less than 80% in each case.

`Cc1c(NC(=O)[C@@H](Cc2ccccc2)CC2(C)CC2)cnc2c(F)cccc12` [Compound F-40, (2R)-2-benzyl-N-(8-fluoro-4-methyl-3-quinolyl)-3-(1-methylcyclopropyl)propanamide]: the inhibition of growth at 200 ppm (in [5]; in the series on Fusarium culmorum [6]; in series [7]; in series [8]; in series [2]; in series [4]) was no less than 80% throughout. For the same compound, in the series with Fusarium culmorum [1], the pest or weed control at 200 ppm is no less than 80%. The inhibition of growth at 20 ppm in the series on Sclerotinia sclerotiorum is no less than 80%.
